{"source": "patent US7537919B2", "about": "“Cytochrome P450RAI-2 and related proteins” (Cytochroma Inc., priority 1999, dated 2009)", "key": {"[1]": {"system": "P450RAI-2 transcripts", "test": "Induction of P450RAI-2 mRNA in cultured cell lines (Northern blot, RT-PCR)", "conditions": "for induction of P450RAI-2 expression, MCF-7 cells: 10^-6 M retinoid"}, "[2]": {"target": "T1, P450RAI-1 (Homo sapiens, UniProt O43174)", "T1 sequence (O43174 1-497)": "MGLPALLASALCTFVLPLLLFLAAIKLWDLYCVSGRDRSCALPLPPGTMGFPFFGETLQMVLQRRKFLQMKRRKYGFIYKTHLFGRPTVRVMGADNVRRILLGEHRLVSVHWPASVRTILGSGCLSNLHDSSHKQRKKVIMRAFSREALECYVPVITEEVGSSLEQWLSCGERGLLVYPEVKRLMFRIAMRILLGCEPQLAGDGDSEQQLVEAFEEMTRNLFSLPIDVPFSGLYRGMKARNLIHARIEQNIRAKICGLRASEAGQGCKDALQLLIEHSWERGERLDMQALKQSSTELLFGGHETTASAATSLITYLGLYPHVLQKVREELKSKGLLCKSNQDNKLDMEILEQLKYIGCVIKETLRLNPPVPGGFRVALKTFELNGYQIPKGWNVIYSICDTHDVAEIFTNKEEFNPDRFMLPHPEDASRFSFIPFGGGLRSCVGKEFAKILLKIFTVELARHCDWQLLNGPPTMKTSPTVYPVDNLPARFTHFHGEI", "test": "Competitive inhibition of all-trans-RA metabolism in COS-1 cells transfected with pcDNA3.1-P450RAI-1", "format": "cell-based", "design": "expressed in transfected cells; host or cells: COS-1 (African green monkey kidney), transient transfection", "conditions": "for effectiveness as competitor of P450RAI-1 mediated all-trans-RA metabolism: compared with all-trans-RA; for IC50: 2 nM [3H]all-trans-RA, 3 hours, aqueous soluble radioactivity, read-out: Interpolated ID50, P450RAI-1", "experimental": "(§1) Panels on the right show cells expressing P450RAI-2 with panels on the left showing cells expressing P450RAI-1.\n(§2) Exponentially growing cells were plated in triplicate into 6-well plates and transfected with lug of pcDNA3.1-P450RAI-1 or pcDNA3.1-P450RAI-2 using Fugene 6 transfection reagent with 3 ul per sample as described by the manufacturer (Roche Molecular Biochemicals, IN). Cells were maintained in media supplemented with 10% FBS during transfection.\nCOS-1 cells were transfected with either pcDNA3.1-P450RAI-1 or pcDNA3.1-P450RAI-2 in 6-well tissue culture plates as described above. 48 hours post-transfection cells were harvested, pooled, washed with DMEM medium and replated into duplicate 48-well plates with 5×10^5 cells per well."}, "[3]": {"target": "T2, P450RAI-2 (Homo sapiens, UniProt Q9NR63)", "T2 sequence (Q9NR63 1-512)": "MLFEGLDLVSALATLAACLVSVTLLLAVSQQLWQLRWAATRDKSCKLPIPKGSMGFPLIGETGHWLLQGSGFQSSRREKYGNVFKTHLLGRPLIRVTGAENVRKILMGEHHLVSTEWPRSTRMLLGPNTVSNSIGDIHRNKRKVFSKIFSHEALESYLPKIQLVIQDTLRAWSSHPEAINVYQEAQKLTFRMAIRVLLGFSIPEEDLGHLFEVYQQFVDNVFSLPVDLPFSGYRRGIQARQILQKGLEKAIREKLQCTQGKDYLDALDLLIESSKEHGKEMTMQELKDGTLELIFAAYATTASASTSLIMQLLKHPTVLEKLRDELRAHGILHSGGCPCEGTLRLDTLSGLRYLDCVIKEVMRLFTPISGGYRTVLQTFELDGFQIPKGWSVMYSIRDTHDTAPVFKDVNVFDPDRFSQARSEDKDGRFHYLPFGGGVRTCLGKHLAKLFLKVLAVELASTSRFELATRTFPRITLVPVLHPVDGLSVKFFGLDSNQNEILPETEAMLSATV", "test": "Competitive inhibition of all-trans-RA metabolism in COS-1 cells transfected with pcDNA3.1-P450RAI-2", "format": "cell-based", "design": "The full-length human P450RAI-2 cDNA was cloned into the eukaryotic expression vector pcDNA 3.1; expressed in transfected cells; host or cells: COS-1 (African green monkey kidney), transient transfection", "conditions": "for effectiveness as competitor of P450RAI-2 mediated all-trans-RA metabolism: compared with all-trans-RA, COS-1 cells", "experimental": "as §1, §2\nCOS-1 cells were transfected with either pcDNA3.1-P450RAI-1 or pcDNA3.1-P450RAI-2 in 6-well tissue culture plates as described above."}, "[4]": {"test": "Conversion of [3H]all-trans-RA in controls (media alone, pcDNA3.1 transfected COS-1 cells)"}, "[5]": {"target": "T2, P450RAI-2", "test": "Metabolism of [3H]all-trans-RA to aqueous-soluble products in COS-1 cells transfected with pcDNA3.1-P450RAI-2", "design": "dose or concentration left out as unconfirmed", "conditions": "radiolabelled all-trans-retinoic acid"}, "[6]": {"target": "T1, P450RAI-1", "test": "Metabolism of [3H]all-trans-RA to aqueous-soluble products in COS-1 cells transfected with pcDNA3.1-P450RAI-1", "conditions": "100 mM (so in the source) radiolabelled all-trans-retinoic acid"}, "[7]": {"system": "P450RAI-2 expression", "test": "P450RAI-2 expression in RAFT and psoriasis biopsy samples (Northern blot, RT-PCR)", "format": "cell-based, human", "experimental": "Total RNA aliquots (10 μg) were electrophoresed on a 1.0% formaldehyde-agarose gel and a northern blot performed. The gel was photographed under ultraviolet light and then blotted on Hybond ECL nitrocellulose membrane (Amersham Pharmacia Biotech, UK) and fixed to the membrane by baking at 80° C. for 2 hours under vacuum. […] Three individual cDNA fragments were labeled with α-[^32P]dATP using the Prime-A-Gene Labeling System (Promega, WI). The probes were as follows; P450RAI-1762-1217 bp of SEQ ID NO:13, full length P450RAI-2 SEQ ID NO:4 and a human glyceraldehyde-3-phosphate dehydrogenase (GAPDH) PCR fragment. The blot was hybidized with P450RAI-2, washed two times for 5 minutes in 2×SSPE, 0.1% SDS at room temperature, then washed once at 65° C. for 10 minutes in 1×SSPE, 0.1% SDS and a final wash for 15 minutes at 65° C. in 0.1×SSPE, 0.1% SDS. The blot was exposed at −70° C. for 48 hours to Kodak X-Omat AR film (Eastman Kodak Company, NY). […] The blot was stripped by washing two times for 30 minutes in boiling 0.5% SDS and exposed to film overnight to ensure proper removal of probe. The above protocol was repeated for P450RAI-1 and GAPDH. The P450RAI-1 and GAPDH blots were exposed for 96 and 4 hours respectively.\nThe final primer concentrations were 45 μM for the P450RAI-1 and P450RAI-2 primers and 11.25 μM for the GAPDH-specific primers. Two separate sets of reactions were performed using the primer sets, P450RAI-1/GAPDH and P450RAI-2/GAPDH. […] The P450RAI-1, P450RAI-2 and GAPDH upstream and downstream amplification primers sets were 5′[…]-3′ (SEQ ID NO: 35) and 5′-[…]-3′ (SEQ ID NO: 36), 5′-[…]-3′ (SEQ ID NO: 37) and 5′-[…]-3′ (SEQ ID NO: 38), 5′-[…]-3′ (SEQ ID NO: 39) and 5′-[…]-3′ (SEQ ID NO: 40) respectively. […] Both the Psoriasis samples show PCR products corresponding to P450RAI-2."}}, "note": "Several values for one entry are separate records, joined by “and”; a condition that tells them apart may be missing. Equal values may be shown once.", "data": [{"smiles": "CC1=C(/C=C/C(C)=C/C=C/C(C)=C\\C(=O)O)C(C)(C)CCC1", "note": "[13-cis-RA, 13-cis retinoic acid]", "values": [{"measurement": "induction of P450RAI-2 expression, MCF-7 cells", "setting": "[1]; Northern blot, 12 hours", "result": "induced"}, {"measurement": "effectiveness as competitor of P450RAI-1 mediated all-trans-RA metabolism", "setting": "[2]", "result": "less effective"}, {"measurement": "effectiveness as competitor of P450RAI-2 mediated all-trans-RA metabolism", "setting": "[3]", "result": "less effective"}]}, {"smiles": "CC1=C(/C=C/C(C)=C/C=C/C(C)=C/CO)C(C)(C)CCC1", "note": "[Retinol, retinol]", "values": [{"measurement": "IC50", "setting": "[2]", "result": "> 100000", "unit": "nM"}, {"measurement": "effectiveness as competitor of P450RAI-1 mediated all-trans-RA metabolism", "setting": "[2]", "result": "less effective"}, {"measurement": "effectiveness as competitor of P450RAI-1 mediated all-trans-RA metabolism", "setting": "[2]; listed as retinol", "result": "very poor competitors"}, {"measurement": "effectiveness as competitor of P450RAI-2 mediated all-trans-RA metabolism", "setting": "[3]", "result": "less effective"}, {"measurement": "effectiveness as competitor of P450RAI-2 mediated all-trans-RA metabolism", "setting": "[3]; listed as retinol", "result": "very poor competitors"}, {"measurement": "IC50", "setting": "[3]; read-out: Interpolated ID50, P450RAI-2", "result": "> 100000", "unit": "nM"}]}, {"smiles": "CC1=C(/C=C/C(C)=C/C=C/C(C)=C/C=O)C(C)(C)CCC1", "note": "[retinal]", "values": [{"measurement": "effectiveness as competitor of P450RAI-1 mediated all-trans-RA metabolism", "setting": "[2]", "result": "less effective"}, {"measurement": "effectiveness as competitor of P450RAI-1 mediated all-trans-RA metabolism", "setting": "[2]; listed as retinaldehyde", "result": "very poor competitors"}, {"measurement": "effectiveness as competitor of P450RAI-2 mediated all-trans-RA metabolism", "setting": "[3]", "result": "less effective"}, {"measurement": "effectiveness as competitor of P450RAI-2 mediated all-trans-RA metabolism", "setting": "[3]; listed as retinaldehyde", "result": "very poor competitors"}]}, {"smiles": "CC1=C(/C=C/C(C)=C/C=C/C(C)=C/C(=O)O)C(C)(C)CCC1", "note": "[All-trans-RA, all-trans retinoic acid]", "values": [{"measurement": "time to induction of P450RAI-2 transcripts", "setting": "[1]; HPK1a-ras cells, RT-PCR, post-addition of inducer", "result": "≤ 2", "unit": "h"}, {"measurement": "induction of P450RAI-2 transcripts, HPK1a-ras, HeLa and MCF-7", "setting": "[1]; Northern blot, 1 μM, 12 hours", "result": "show induction"}, {"measurement": "induction of P450RAI-2 expression, MCF-7 cells", "setting": "[1]; Northern blot, 12 hours", "result": "induced"}, {"measurement": "induction of P450RAI-2 expression, HPK1A-RAS keratinocytes", "setting": "[1]; Northern blot, 10^-6 M, 12 hours", "result": "inducible"}, {"measurement": "inducible expression of P450RAI-2, MCF-7, HeLa, HPK1a-ras and WT-E", "setting": "[1]; RT-PCR, 1 μM", "result": "evidence for inducible expression"}, {"measurement": "P450RAI-2 transcripts in NB4, V79 and SK-Luci-6 cells", "setting": "[1]; RT-PCR, vehicle or all-trans-RA treated", "result": "little or no perceptible transcripts"}, {"measurement": "conversion of substrate to aqueous radioactivity, pcDNA3.1 transfected cells", "setting": "[4]; COS-1 cells with empty vector pcDNA3.1, 3 hours", "result": "2.7±0.2", "unit": "%"}, {"measurement": "conversion of substrate to aqueous radioactivity, media alone", "setting": "[4]; media alone control, 3 hours", "result": "1.6±0.1", "unit": "%"}, {"measurement": "IC50", "setting": "[2]", "result": "~2500 nM and 2500 nM"}, {"measurement": "all-trans-RA substrate converted to aqueous-soluble products, P450RAI-2 transfected cells", "setting": "[5]", "result": "34±0.2", "unit": "%"}, {"measurement": "all-trans-RA substrate converted to aqueous-soluble products, P450RAI-1 transfected cells", "setting": "[6]", "result": "26±1.5", "unit": "%"}]}, {"smiles": "CC1=C(/C=C/C(C)=C\\C=C\\C(C)=C\\C(=O)O)C(C)(C)CCC1", "note": "[9-cis-RA, 9-cis retinoic acid]", "values": [{"measurement": "induction of P450RAI-2 expression, MCF-7 cells", "setting": "[1]; Northern blot, 12 hours", "result": "not clear"}, {"measurement": "effectiveness as competitor of P450RAI-1 mediated all-trans-RA metabolism", "setting": "[2]", "result": "less effective"}, {"measurement": "effectiveness as competitor of P450RAI-2 mediated all-trans-RA metabolism", "setting": "[3]", "result": "less effective"}]}, {"smiles": "CCOC(=O)c1ccc(C#Cc2ccc3c(c2)C(C)(C)CCS3)nc1", "note": "[Tazarotene]", "values": [{"measurement": "P450RAI-2 expression, Day14 Psoriasis Biopsy sample", "setting": "[7]; Northern blot", "result": "expressed"}, {"measurement": "P450RAI-2 expression, RAFT sample", "setting": "[7]; Northern blot", "result": "induced"}, {"measurement": "P450RAI-2 expression, RAFT sample", "setting": "[7]; RT-PCR", "result": "shows expression"}]}]}
